Experimental data published in patent US20220017495A1, “CONJUGATES OF BIVALENT EVANS BLUE DYE DERIVATIVES AND METHODS OF USE” (THE UNITED STATES OF AMERICA, AS REPRESENTED BY THE …, priority 2019, published 2022).
Where a name gives a salt, the structure may show the parent alone.

How the values were obtained:
[1] = Optical properties: absorption, emission, quantum yield and quantum efficiency; assay type: physicochemical; set-up: ϵ600nm / ϵpeak: unit not given here; conditions: for Molar ϵ600nm / Molar ϵpeak: in M-1cm-1 (unit assumed); for Absorption peak / Emission peak: in BSA; for QE: QE=ε*QY; for QY600nm: relative, NtEB set as 1; for Extinction coefficient: as given in text (peak, BSA)
Protocol: The absorption and the emission spectra of N(tEB)2, NtEB and EB were measured in PBS, BSA and FBS buffers. […] The similar emission peaks of the three EB derivatives in BSA were recorded at 661, 652 and 660 nm, respectively.
Fluorescence brightness of each compound was further compared with equal molar amount of N(tEB)2, NtEB, or EB in the presence or absence of human serum albumin.
Quantum efficiency is a dye metric encompassing both the quantum yield and absorption coefficient (QE=ε*QY).

[2] = biological target: T1, human serum albumin (HSA) (Homo sapiens, UniProt P02768); assay: Atomic force microscopy of complexes with HSA; set-up: purchased Abeam Inc., Cambridge, Mass; (so in the source); conditions: molar ratio 1:10, 1:1 and 10:1 with HSA
Protocol: We performed atomic force microscopy (AFM) to study the morphological structures of the complex. […] Samples ([…]) were cast on freshly peeled mica substrate, followed by drying, rinsing, and dehumidifying. AFM was carried out in tapping mode in air on a PicoForce Multimode AFM (Bruker, CA) equipped with a NANOSCOPE V controller, a type E scanner head, and a sharpened TESP-SS (Bruker, CA) AFM cantilever. An inverted optical microscope (IX71, Olympus, Japan) was used to capture pictures. AFM images were then analyzed by NANOSCOPE Software (version 7.3-8.15, Bruker, CA). For quantification, 10 different fields of view in one image were selected to quantify the “dimer” and the “monomer”. The size and morphology of dimer and monomer was defined by ImageJ (NIH, MD), a public domain Java image processing program.

[3] = system: U-87MG, UM-22B and INS-1 tumor mouse xenografts; assay: PET tumor uptake and ex vivo biodistribution in tumor xenografts; set-up: species or system nude mice; conditions: for Tumor retention compared with IgG: U-87MG xenografts
Excerpt: For each scan, regions of interest (ROIs) were drawn using vendor software (ASI Pro 5.2.4.0; Siemens Medical Solutions) on decay-corrected whole-body coronal images. […] These values were then divided by the administered activity to obtain (assuming a tissue density of 1 g/mL) an image-ROI-derived percentage injected dose per gram (% ID/g).
PET images were reconstructed without correction for attenuation or scattering using a three-dimensional ordered subsets expectation maximization algorithm.

[4] = biological target: T1, human serum albumin (HSA); assay: Biolayer interferometry (BLI) binding to biotinylated HSA
Protocol: In this study, we used the streptavidin conjugated biosensors (Pall Fort6Bio LLC, CA). We preincubated the biosensors with biotinylated HSA (Abeam Inc., Cambridge, Mass.) for 10 minutes. After removing the unbound biotinylated HSA, the biosensors were washed for 1 minute. After blocking the spare biosensor, we added EZ-Link™ Sulfo-NHS-Biotin (Thermo Fisher Scientific, Rockford, Ill.) to each well and then removed it and washed the wells.
Association of a given dilution of a compound with the albumin-derivatized biosensor was measured for 600 seconds and then in turn, dissociation of the compound from the albumin measured for another 600 seconds. Data was analyzed using the OCTET Data Analysis software 7.0.

[5] = system: blood glucose; assay: Blood glucose monitoring in T2DM mice; assay type: in vivo, db/db mice

T1 sequence (P02768 25-609): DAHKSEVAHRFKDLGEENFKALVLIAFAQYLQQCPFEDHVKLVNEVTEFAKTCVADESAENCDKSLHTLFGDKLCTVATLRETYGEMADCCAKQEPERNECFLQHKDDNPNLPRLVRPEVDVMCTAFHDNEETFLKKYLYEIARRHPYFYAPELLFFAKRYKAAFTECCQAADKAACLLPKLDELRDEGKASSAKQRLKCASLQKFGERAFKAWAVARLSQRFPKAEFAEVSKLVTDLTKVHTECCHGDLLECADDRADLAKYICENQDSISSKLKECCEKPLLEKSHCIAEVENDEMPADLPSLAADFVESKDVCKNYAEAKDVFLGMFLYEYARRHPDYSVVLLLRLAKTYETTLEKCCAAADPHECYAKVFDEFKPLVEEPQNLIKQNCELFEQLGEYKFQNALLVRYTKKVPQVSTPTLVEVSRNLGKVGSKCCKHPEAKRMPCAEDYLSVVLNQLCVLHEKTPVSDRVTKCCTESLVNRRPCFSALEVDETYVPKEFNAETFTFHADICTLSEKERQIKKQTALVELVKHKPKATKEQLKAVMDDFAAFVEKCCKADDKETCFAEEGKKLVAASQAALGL

OD600nm ([1]; In BSA)	ODpeak ([1]; In BSA)	ϵ600nm ([1]; In BSA)	ϵpeak ([1]; In BSA)	Molar ϵ600nm ([1]; In BSA)	Molar ϵpeak ([1]; In BSA)	OD600nm ([1]; In FBS)	ODpeak ([1]; In FBS)	ϵ600nm ([1]; In FBS)	ϵpeak ([1]; In FBS)	Molar ϵ600nm ([1]; In FBS)	Molar ϵpeak ([1]; In FBS)	OD600nm ([1]; In PBS)	ODpeak ([1]; In PBS)	ϵ600nm ([1]; In PBS)	ϵpeak ([1]; In PBS)	Molar ϵ600nm ([1]; In PBS)	Molar ϵpeak ([1]; In PBS)	Absorption peak [1] [nm]	Emission peak [1] [nm]	Compound	further results
0.905	0.9551	88.14	93.02	84683.69	89371.71	0.8414	0.9057	81.94	88.21	78732.44	84749.19	0.9906	0.9983	96.47	97.22	92693.55	93414.07	548	660	Cc1cc(-c2ccc(N=Nc3ccc4c(S(=O)(=O)O)cc(S(=O)(=O)O)c(N)c4c3O)c(C)c2)ccc1N=Nc1ccc2c(S(=O)(=O)O)cc(S(=O)(=O)O)c(N)c2c1O [EB, tetrasodium salt of 6,6′-{(3,3′-dimethyl[1,1′-biphenyl]-4,4′-diyl)bis[diazene-2,1-diyl]}bis(4-amino-5-hydroxynaphthalene-1,3-disulfonate)]	–
0.1245	0.183	27.79	40.85	37553.09	55198.51	0.1561	0.1931	34.84	43.10	47084.63	58244.99	0.0987	0.1806	22.03	40.31	29771.00	54474.60	610	661	Cc1cc(-c2ccc(NC(=O)CN3CCN(CC(=O)O)CCN(CC(=O)Nc4ccc(-c5ccc(N=Nc6ccc7c(S(=O)(=O)O)cc(S(=O)(=O)O)c(N)c7c6O)c(C)c5)cc4C)CC3)c(C)c2)ccc1N=Nc1ccc2c(S(=O)(=O)O)cc(S(=O)(=O)O)c(N)c2c1O [N(tEB)2]	QE improvement over NtEB [1]: 5 fold; Quantum yield enhancement over NtEB [1]: 2 fold; QE ([1]; In BSA): 78929.01; QY600nm ([1]; In BSA): 2.10; QE ([1]; In FBS): 98962.49; QY600nm ([1]; In FBS): 2.10; Extinction coefficient [1]: 55198 M⁻¹ cm⁻¹; Dimerization of albumin (AFM) [2]: observed at all tested molar ratios; Tumor retention compared with IgG ([3]; 24 h p.i.): comparable; Tumor retention compared with IgG ([3]; 48 h p.i.): significantly higher; Tumor uptake compared with NtEB ([3]; ^64Cu labeled, all tested tumor models, 24 and/or 48 h p.i.): significantly improved; Kd times lower than EB complex with albumin [4]: 2 times; Kd times lower than NtEB complex with albumin [4]: 43 times; Kon value [4]: 47100 M⁻¹ s⁻¹; koff value [4]: 0.10 s⁻¹; Kd ([4]; pH 7.4): 1.8 µM; Koff ([4]; pH 7.4): 0.1009 s⁻¹; Kon ([4]; pH 7.4): 4.7128
0.0759	0.1108	18.98	27.70	15696.60	22914.15	0.0883	0.1132	22.08	28.30	18261.00	23410.48	0.0857	0.1533	21.43	38.33	17723.31	31703.42	550	652	Cc1cc(-c2ccc(NC(=O)CN3CCN(CC(=O)O)CCN(CC(=O)O)CC3)c(C)c2)ccc1N=Nc1ccc2c(S(=O)(=O)O)cc(S(=O)(=O)O)c(N)c2c1O [NtEB]	QE ([1]; In BSA): 15696.60; QY600nm ([1]; In BSA): 1; QE ([1]; In FBS): 18261.00; QY600nm ([1]; In FBS): 1; Extinction coefficient [1]: 22914 M⁻¹ cm⁻¹; Dimerization of albumin (AFM) [2]: no apparent albumin dimers; Kd ([4]; pH 7.4): 79 µM; Koff ([4]; pH 7.4): 0.7947 s⁻¹; kon ([4]; pH 7.4): 13500 M⁻¹ s⁻¹
–	–	–	–	–	–	–	–	–	–	–	–	–	–	–	–	–	–	–	–	exendin-4: exendin-4 peptide, a glucagon-like peptide-1 (GLP-1) agonist	Reduction of glucose level ([5]; 1 h p.i., normalized to baseline plasma glucose): approximately 50%; Glucose level at recovery ([5]; at 12 h): 389.67 ± 44.3 mg/dL; Effective time window (from 50% reduction of glucose level to rebound to the original level) ([5]; single subcutaneous injection): 10.3 h; Glucose recovery time ([5]; single subcutaneous injection): 12 h
